Here are results for 15 molecules from patent publication US20260285853A1, “COMPOUNDS AND METHODS FOR MODULATING SPLICING” (REMIX THERAPEUTICS INC., priority 2023, published 2026).

Where only a bound is given, the exact number is not on record here.

Holding throughout (format): cell-based
Assay [1] has as its system MYB mRNA. The assay can be described thus: Gene panel canonical junction qPCR assay, decrease in CJ mRNA, Table 3. Conditions: decrease in CJ mRNA levels, canonical junction qPCR, gene panel. The essentials:
(§1)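 A673 (DMEM, 10% FBS, 15,000 cells/well) or K562 (IMDM, 10% FBS) cells treated 24 h at 37 °C with 11-point 3-fold dilutions, top 10 uM, DMSO ≤0.25%. Canonical exon-exon junction mRNA measured by RT-qPCR, normalized to GAPDH, GUSB or PPIA and DMSO (ΔΔCt); IC50 from 4-parameter logistic fit.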
A general note: In qPCR the cycle at which signal appears reflects the starting amount.

The subject of assay [2] is HTT mRNA. Described as above. Conditions: decrease in CJ mRNA levels, canonical junction qPCR, gene panel. The essentials: as §1
Assay [3] concerns MYB mRNA. Description: Splicing RT-qPCR assay (THP), Table 2A. Particulars: Table 2A, THP; for AC50: MYB alternative junction (AJ) mRNA, read-out: MYB AJ (AC50, increase in alternative junction mRNA); for IC50: MYB canonical junction (CJ) mRNA, read-out: MYB CJ (IC50, decrease in canonical junction mRNA).
Assay [4] relates to SH-SY5Y (human neuroblastoma) cells. The assay can be described thus: Cell viability, Cell Titer Glo 2.0 assay. Conditions: read-out: Viability SHSY5Y.3 GI50. The gist of the method: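 Toxicity screen in SH-SY5Y cells. Compounds were serially diluted in DMSO and then in medium, giving 0.1% DMSO final. Viability was read with CellTiter-Glo 2.0 after 72 h at 37 °C, 5% CO2, against medium-only blank wells.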
On the technique in general: ATP-based viability assays read luminescence as a measure of living cells.

Assay [5] deals with HTT mRNA. The assay can be described thus: Splicing RT-qPCR assay (THP), Table 2A. Particulars: Table 2A, THP; for AC50: HTT alternative junction (AJ) mRNA, read-out: HTT AJ (AC50, increase in alternative junction mRNA); for IC50: HTT canonical junction (CJ) mRNA, read-out: HTT CJ (IC50, decrease in canonical junction mRNA).

For orientation: IC50 means the point on the concentration scale where inhibition reaches its midpoint. In general, AC50 refers to the concentration at which the activity in the assay is half-maximal. For orientation: GI50 means the concentration giving 50% growth inhibition. Take `COc1nc2c(C(=O)Nc3cc(Cl)c4nn(C)cc4c3)ccc(N3C[C@H](C)N[C@@H](C)C3)c2s1` [Compound 785]: the IC50 is less than 100 nM in assay [1], 100 to 1000 nM in assay [2], less than 100 nM in assay [3] and 100 to 1000 nM in assay [5]. Besides, the values for the concentration at half-maximal activity (AC50) in assay [3] and in assay [5] were less than 100 nM and 100 to 1000 nM, respectively. The concentration for 50% growth inhibition (GI50) in assay [4] is less than 100 nM.

As to `COc1nc2c(C(=O)Nc3cc4cn(C)nc4c(F)c3OC)ccc(N3C[C@H](C)N[C@@H](C)C3)c2s1` [Compound 786], the half-inhibitory concentration (IC50) in assay [1] is 100 to 1000 nM; in assay [2], 1000 to 10000 nM; in assay [3], 100 to 1000 nM; in assay [5], 1000 to 10000 nM. The AC50 is 100 to 1000 nM in assay [3] and 1000 to 10000 nM in assay [5]. In addition, the GI50 in assay [4] is 1000 to 10000 nM.

As for `COc1nc2c(C(=O)Nc3cc4cc(C)nn4cc3OC)ccc(N3C[C@H](C)N[C@@H](C)C3)c2s1` [Compound 787, 7-((3S,5S)-3,5-dimethylpiperazin-1-yl)-2-methoxy-N-(6-methoxy-2-methylpyrazolo[1,5-a]pyridin-5-yl)benzo[d]thiazole-4-carboxamide 2,2,2-trifluoroacetate], the IC50 in assay [1] is 1000 to 10000 nM; in assay [2] it was greater than 10000 nM; in assay [3] it was 1000 to 10000 nM; in assay [5], greater than 10000 nM. For the same molecule, the AC50 in assay [3] and in assay [5] was greater than 10000 nM in each case. In addition, in assay [4], the GI50 lay within 1000 to 10000 nM.

Consider `COc1nc2c(C(=O)Nc3cc(F)c4nn(C)cc4c3)ccc(N3C[C@@H](C)NC4(CC4)C3)c2s1` [Compound 788], for which the half-inhibitory concentration (IC50) was 100 to 1000 nM in assay [1], greater than 10000 nM in assay [2], 100 to 1000 nM in assay [3] and greater than 10000 nM in assay [5]. Further, the half-maximal activity concentration (AC50) in assay [3] is less than 100 nM; in assay [5], greater than 10000 nM. Further, in assay [4], the 50% growth inhibitory concentration (GI50) was in the range of 1000 to 10000 nM.

Turning to `COc1nc2c(C(=O)Nc3cc(F)c4nn(C)cc4c3)ccc(N3CCN(C)CC3)c2s1` [Compound 789], the concentration for half-maximal inhibition (IC50) in assay [1] was less than 100 nM; in assay [2], 100 to 1000 nM; in assay [3], less than 100 nM; in assay [5], 100 to 1000 nM. Besides, the AC50 in assay [3] is less than 100 nM; in assay [5] it was 100 to 1000 nM. Also, the concentration for 50% growth inhibition (GI50) in assay [4] was 100 to 1000 nM.

As to `COc1cc2c(N3C[C@H](C)N[C@@H](C)C3)ccc(C(=O)Nc3cc(F)c4nn(C)cc4c3)c2o1` [Compound 790], the half-inhibitory concentration (IC50) in assay [1] was less than 100 nM; in assay [2] it was 1000 to 10000 nM; in assay [3], less than 100 nM; in assay [5], 1000 to 10000 nM. Moreover, the values for the half-maximal activity concentration (AC50) in assay [3] and in assay [5] were less than 100 nM and 100 to 1000 nM, respectively. In assay [4], the GI50 was 100 to 1000 nM.

In the case of `Cc1cn2cc(NC(=O)c3ccc(N4CCC(NC5CC5)CC4)c4cn(C)nc34)nc2c(CNC(C)C(F)(F)F)n1` (stereo not drawn) [Compound 791, 4-[4-(cyclopropylamino)-1-piperidyl]-2-methyl-N-[6-methyl-8-[[(2,2,2-trifluoro-1-methyl-ethyl)amino]methyl]imidazo[1,2-a]pyrazin-2-yl]indazole-7-carboxamide], the IC50 in assay [1], in assay [2], in assay [3] and in assay [5] was greater than 10000 nM in each case. The AC50 in assay [3] and in assay [5] was greater than 10000 nM in each case. Further, in assay [4], the concentration for 50% growth inhibition (GI50) fell in the range of 1000 to 10000 nM.

Consider `Cc1cn2cc(NC(=O)c3ccc(N(C)C)c4cn(C)nc34)nc2c(CNS(C)(=O)=O)n1` [Compound 792], for which the IC50 in assay [1], in assay [2], in assay [3] and in assay [5] was 1000 to 10000 nM throughout. Also, the AC50 in assay [3] and in assay [5] was 1000 to 10000 nM throughout. In assay [4], the GI50 lay within 1000 to 10000 nM.

For `Cn1cc2cc(NC(=O)c3ccc(N4CCC(NC5CC5)CC4)c4cn(C)nc34)cc(CO)c2n1` [Compound 793], the IC50 was 1000 to 10000 nM in assay [1], greater than 10000 nM in assay [2], 1000 to 10000 nM in assay [3] and greater than 10000 nM in assay [5]. The concentration at half-maximal activity (AC50) was 1000 to 10000 nM in assay [3] and greater than 10000 nM in assay [5]. For the same molecule, the concentration for 50% growth inhibition (GI50) in assay [4] fell in the range of 1000 to 10000 nM.

As for `C=CCNC1CCN(c2ccc(C(=O)Nc3cc(CO)c4nn(C)cc4c3)c3nn(C)cc23)CC1` [Compound 794, 4-[4-(allylamino)-1-piperidyl]-N-[7-(hydroxymethyl)-2-methyl-indazol-5-yl]-2-methyl-indazole-7-carboxamide], the concentration for half-maximal inhibition (IC50) in assay [1] was 100 to 1000 nM; in assay [2], greater than 10000 nM; in assay [3], 100 to 1000 nM; in assay [5], greater than 10000 nM. Besides, the AC50 in assay [3] is 1000 to 10000 nM; in assay [5], greater than 10000 nM. The GI50 in assay [4] lay within 1000 to 10000 nM.

As to `Cc1cn2cc(NC(=O)c3ccc(N4CCC(NC5CC5)CC4)c4cn(C)nc34)nc2c(CN2CCCCS2(=O)=O)n1` [Compound 795], the IC50 in assay [1], in assay [2], in assay [3] and in assay [5] was greater than 10000 nM in each case. Also, the AC50 in assay [3] and in assay [5] was greater than 10000 nM throughout. In addition, the concentration for 50% growth inhibition (GI50) in assay [4] lay within 1000 to 10000 nM.

On to `C[C@H]1CN(c2ccc(C(=O)Nc3cc(F)c4nn(C)cc4c3)c3sc(OCc4ccnn4C)nc23)C[C@H](C)N1` [Compound 796, 4-[(3S,5S)-3,5-dimethylpiperazin-1-yl]-N-(7-fluoro-2-methyl-indazol-5-yl)-2-[(2-methylpyrazol-3-yl)methoxy]-1,3-benzothiazole-7-carboxamide], for which the IC50 in assay [1], in assay [2], in assay [3] and in assay [5] was greater than 10000 nM each time. The AC50 in assay [3] and in assay [5] was greater than 10000 nM each time. Moreover, in assay [4], the GI50 lay within 1000 to 10000 nM.

For `C[C@H]1CN(c2ccc(C(=O)Nc3cc(F)c4nn(C)cc4c3)c3sc(OCC4CCNC4)nc23)C[C@H](C)N1` (stereo partly drawn) [Compound 797, 4-((3S,5S)-3,5-dimethylpiperazin-1-yl)-N-(7-fluoro-2-methyl-2H-indazol-5-yl)-2-(pyrrolidin-3-ylmethoxy)benzo[d]thiazole-7-carboxamide bis(2,2,2-trifluoroacetate)], the IC50 in assay [1], in assay [2], in assay [3] and in assay [5] was greater than 10000 nM in each case. In addition, the AC50 in assay [3] and in assay [5] was greater than 10000 nM throughout. Besides, the concentration for 50% growth inhibition (GI50) in assay [4] was greater than 10000 nM.

For `CCNC1CCN(c2ccc(C(=O)Nc3cc(CNS(C)(=O)=O)c4nn(C)cc4c3)c3nn(C)cc23)CC1` [Compound 798, 4-[4-(ethylamino)-1-piperidyl]-N-[7-(methanesulfonamidomethyl)-2-methyl-indazol-5-yl]-2-methyl-indazole-7-carboxamide], the IC50 in assay [1], in assay [2], in assay [3] and in assay [5] was 1000 to 10000 nM in each case. For the same molecule, the AC50 in assay [3] and in assay [5] was 1000 to 10000 nM each time. In addition, in assay [4], the GI50 was 1000 to 10000 nM.

As for `COc1nc2c(C(=O)Nc3cn4ccnc4c(F)c3OC)ccc(N3C[C@H](C)N[C@@H](C)C3)c2s1` [Compound 799], the IC50 in assay [1] is 1000 to 10000 nM; in assay [2], greater than 10000 nM; in assay [3] it was 1000 to 10000 nM; in assay [5] it was greater than 10000 nM. Besides, the AC50 in assay [3] is 1000 to 10000 nM; in assay [5], greater than 10000 nM. In addition, in assay [4], the 50% growth inhibitory concentration (GI50) was 1000 to 10000 nM.
